Marks after values point to notes of the source that are not given here.
How the values were obtained:
[1] = system: C2C12 myocytes; assay: Lipolysis (glycerol / free fatty acid release) in C2C12 myocytes; assay type: cell-based, murine; settings: test materials 5 or 2.5 μg/mL (FIG. 10)
Description: Cell culture and treatment-Culture and treatment of 3T3-L1 adipocytes and C2C12 myocytes was as described in Example 5. Concentrations of the forskolin positive control and test materials are listed in FIG. 9 for adipocytes and FIG. 10 for myocytes. Glycerol assay-Free fatty acid release from 3T3-L1 adipocytes or C2C12 myocytes was quantified by measuring glycerol secretion into the medium. Glycerol was measured spectrophotometrically using the Free Glycerol Determination Kit ([…], Sigma) and an EL 312e Microplate BIO-KINETICS spectrophotometer (BioTek, Winooski, Vt.). Data analysis-Glycerol release from adipocytes and myocytes was expressed, respectively, as the percent increase in free fatty acid secretion (FIG. 9) and relative glycerol content (glycerol index FIG. 10) ±95% confidence intervals of eight observations for one of three representative experiments.

[2] = system: Caco-2 monolayers; assay: t10-CLA-induced loss of transepithelial electrical resistance in Caco-2 monolayers; assay type: cell-based, human
Description: Caco-2 Cells-The protocol for growing and differentiation the human Caco-2 colon andenocarcinoma cells was a modification of Protocol 3 as described by Yamashita et al. [[…]., and Furuyama, Y. (2002) New and better protocols for a short-term Caco-2 cell culture system, J Pharm Sci 91, 669-679]. Caco-2 Human Colon Adenocarcinoma cells were obtained from ATCC (Rockville, Md.; catalog #HTB-37) and maintained in a growth media: DMEM (Dulbecco's Modified Eagles Medium 1×) containing L-glutamine, glucose; Cellgro catalog #35-010CV with the following additions: (1) Penicillin (5,000 IU/mL)/Streptomycin (5,000 μg/mL) Cellgro catalog #30-001C1, (2) 10% FBS-Fetal Bovine Serum, Characterized; Hyclone catalog #SH30071.3, and (3) 1% NEAA-Non Essential Amino Acids; Cellgro catalog #25-025-CI; cells were cultured at 37 C in a humidified air-5% CO2 atmosphere in T175 flasks. Differentiation of Caco-2 cells to intestinal epithelial cells-BIOCOAT^R HTS Caco-2 Assay System kits (Becton Dickinson, N.J.; catalog #354801) consisting of 24-well fibrillar collagen coated inserts and feeder trays were used in all experiments and plated as follows. Media was removed from the T175 flasks and cells were washed with 10 mLs PBS (phosphate buffered saline 1× without Ca^++, without Mg^++; Cellgro #25-053-CI). PBS was removed and 5 mL of Trypsin/EDTA (1×, 0.25% Trypsin/2.21 mM EDTA in HBSS; Cellgro #25-053-CI) were added to the flask and the flask placed at 37 C until cells were visibly floating, approximately 3-5 minutes. Five mL of growth media were added to the flask to neutralize the trypsin. This solution was then transferred to a sterile 50 mL tube. Eight μL were sampled and placed in a hemocytometer for counting under a microscope. Five-hundred μL of cell solution were placed in the upper chamber of each insert so that the final density per well was at least 6.6×10^5 cells/cm^2. Thirty-five mL of growth media were then added to the feeder tray and plate incubated at 37 C with 5% CO2 and 100% humidity for 20-24 hours. […]

Compound: CC1=CC(=O)C(C(C)C)=CC1=O [Thymoquinone (Sigma), thymoquinone]
- free fatty acid release in myocytes [1]: induced free fatty acid release
- Relative Loss of TEER ([2]; 50 μM t10-CLA stimulus, positive control set to 100, each material at its tabulated concentration (TQ 5.0, NS8 0.11, NS9 0.99, NS10 0.012, NSSpent#2 0.0005 μg TQ equivalents/mL; Spent#1 5 μg/mL)): 44.5*
- effect on loss of TEER in t10-CLA-stimulated Caco-2 cells ([2]; concentrations of Table 7): inhibited loss of TEER

From patent US8535740B2, “Compositions from Nigella sativa” (priority 2002, dated 2013)
